Point of comparison: `COc1cc(C)c(C(=O)c2c(Cl)cccc2Cl)c(OC)c1OC`, melting point 92 °C. Against it:
- N#Cc1cnc2cc(-c3ccc(CN4CCOCC4)o3)ccc2c1Nc1ccc(Cl)cc1Cl — higher, 118 to 120 °C
- CCCCCCCC[C@H](C(=S)Nc1c(SC)ccc2ncccc12)c1ccccc1 — higher, 126 to 128 °C
- Cc1ccccc1OCc1ccccc1I — higher, 106 to 108 °C
- O=C1O[C@@H](CO)CN1c1ccc(C2=CCSCC2)c(F)c1 — higher, 119 to 122 °C
- CCCCCS(=O)(=O)NC(=O)CCc1cc(C(C)C)nn1Cc1ccc(C(F)(F)F)cc1Cl — higher, 144 to 145 °C
- FC(F)(F)c1ccc(-c2nc(-c3ccccn3)cs2)cc1 — higher, 123 to 127 °C
- Cc1noc(NS(=O)(=O)c2ccc(C(C)(C)C)cc2)c1C — higher, 151 to 154 °C
- CC(C)n1nc(-c2cc(C(N)=O)cnc2-c2ccccc2)ccc1=O — higher, 229 to 230 °C
- NCC1CCN(CCc2ccc(O)cc2)CC1 — higher, 166 to 168 °C
- O=C1c2ccccc2CN1C1CCN(c2ccc(C(OCCCc3ccccc3)c3ccccc3)cc2)CC1 (stereo unspecified) — higher, 117 to 120 °C
- CSC(Oc1cc(Cl)cc(Cl)c1)C(=O)NC(C)(C)C#CCCCC#N (stereo unspecified) — higher, 113 to 114 °C
- Cc1cccc(N2CC(=O)N(C)C(=O)N2)c1 — higher, 173 to 175 °C
- CSC1C(=O)Nc2c(Nc3ccccc3Cl)cccc21 (stereo unspecified) — higher, 151 to 153 °C
- COc1cc(OC)nc(NC(=O)N=NS(=O)(=O)C2N(C)C=CN2C)n1 — higher, 201 to 203 °C
- O=C(O)Cn1ccc(=O)n(Cc2cccc([N+](=O)[O-])c2)c1=O — higher, 161 to 162 °C
- Cc1noc(NC(=O)N2CCC(c3nc(-c4ccccc4)cs3)CC2)c1C — higher, 156 to 157 °C
- COc1ccc2ncc(C#N)c(Nc3ccc4nn[nH]c4c3)c2c1 — higher, > 250 °C
- Cc1[nH]c(=O)[nH]c1C(N)=O — higher, > 300 °C
- Nc1ncnc2c1c(-c1ccc(Oc3ccccc3)cc1)cn2C1CCNC1 (stereo unspecified) — higher, 182 to 184 °C
- CCOC(=O)c1cn(C2CC2)c2c(F)c(F)c(F)c(C)c2c1=O — higher, 176 to 177 °C
- CSc1c(C=C(C#N)S(C)(=O)=O)c2ccccc2n1Cc1ccccc1 — higher, 125 to 126 °C
- COc1cccc(N2CCN(CCCO)CC2)c1 — lower, 87 to 89 °C
- CCOc1ccc(C2(O)CCN(CC(O)c3ccc(O)c(C)c3)CC2)cn1 (stereo unspecified) — higher, 189 °C
- CS(=O)(=O)N(CCc1ccc(Cl)cc1)Cc1cccnc1 — lower, 77 to 78 °C
- CCOc1ccc([N+](=O)[O-])c(NN2CCN(C)CC2)c1 — higher, 145 °C
- O=C1NC(=O)C(c2ccc(F)cc2)(c2ccc(F)cc2)C(=O)N1 — higher, 315 to 318 °C
- CN(Cc1ccc(-c2ccc(O)c(Br)c2)cc1)C(=O)c1cn(C)c2ccccc12 — higher, 237 to 239 °C
- CC(=O)CC1NC(=O)c2sccc2-n2cccc21 (stereo unspecified) — higher, 268 °C
- CCN1CCC(=O)N(c2c(C)cccc2C)C1=S — higher, 124 to 126 °C
- O=C1CCc2c(-c3ccncc3)sc(-c3ccc(F)cc3)c21 — higher, 193 to 195 °C
- Cc1ccc(Oc2ccc(C)cc2CC(=O)O)cc1 — higher, 101 to 104 °C
- CC12CCC(C(=O)O)=CC1=CCC1C2CCC2(C)C(C(=O)CCCc3ccccc3)CCC12 (stereo unspecified) — higher, 208 to 210 °C
- O=C(O)Cc1c(C(=O)O)c2cc(Oc3ccc(Cl)c(Cl)c3)ccc2n1-c1ccc(OCC(F)(F)F)cc1 — higher, 205 to 210 °C
- O=[N+]([O-])c1cc(Cl)c2c(c1)C(F)(C(F)(F)F)C(F)(F)O2 (stereo unspecified) — lower, 46 to 47 °C
- Cc1nc(-c2ccccn2)n2cn[nH]c(=O)c12 — higher, 295 to 297 °C
- CCOC(=O)C1(C(=O)OCC)CCC2(c3cc(OC)c(OC)cc3CCN2C(C)=O)C(C2c3cc(OC)c(OC)cc3CCN2C)C1 (stereo unspecified) — higher, 166 to 168 °C
- C/C(=C(\C#N)C(N)=S)N1CCCOCC1 — higher, 151 to 156 °C
- O=[N+]([O-])c1cc(C(F)(F)F)ccc1C1(O)CC=NO1 (stereo unspecified) — higher, 122 to 123 °C
- COc1ccc(CNc2nc(CCCC(=O)O)nc3sc(Cl)cc23)cc1Cl — higher, 114 °C
- O=C(NC1CCN(CCc2ccc3ccccc3c2)CC1)c1ccccc1 — higher, 189 to 191 °C
- CC1(C)OC[C@H](Cc2ccccc2)N1C(=O)Cn1cc(I)cn1 — higher, 117 to 120 °C
- COc1ccc2nc(Oc3c(Cl)cc(NS(=O)(=O)c4ccc(C(F)(F)F)cc4Cl)cc3Cl)sc2c1 — higher, 164 to 165 °C
- Cc1cccc(-c2ccnc3ccnn23)n1 — higher, 126 to 127 °C
- CC(=O)C(=Cc1ccc2c(c1)OCO2)C(=O)OCc1ccccc1 — higher, 137 to 138 °C
- CC(C)(C)OC(=O)N1CCC[C@H](O)[C@@H]1c1ccccc1 — lower, 66 to 67 °C
- CC(=O)NCCCNc1ccc(NCCN(C)C)c2c1C(=O)c1ccccc1C2=O — higher, 193 to 194 °C
- CCOC(=O)c1cn2c(n1)SCCC2 — higher, 99 to 100 °C
- CS(=O)(=O)c1ccc(-c2coc(=O)n2-c2ccc(F)cc2)cc1 — higher, 152 to 153 °C
- CCN(C)c1nn(C)c2ncc(-c3ccncc3)cc12 — higher, 182 to 197 °C
- Cn1cc(-c2ccccc2)c(=O)c(-c2ccco2)c1 — higher, 191 to 192 °C
- CSc1nccn1N=Cc1ccccc1 — higher, 95 to 97 °C
- c1ccc(COc2ccc3nc(-c4ccc(C56CC7CC(CC(C7)C5)C6)c(OCc5ccccc5)c4)[nH]c3c2)cc1 — higher, 203 °C
- CCc1nn2c(N)cc(Cl)nc2c1S(=O)(=O)c1ccccc1 — higher, > 220 °C
- CCc1cc(C(=O)c2ccccc2Cl)c(-n2c(C)nnc2CO)s1 — higher, 140 to 141 °C
- Cc1ccc2c(c1)C(c1ccccc1)(C(F)(F)F)c1cc(C)ccc1O2 — higher, 150 to 151 °C
- CCC1CC(=O)N(Cc2ccc(N)cc2)N=C1c1ccc(OC)c(OC2CCCC2)c1 (stereo unspecified) — higher, 109 °C
- CSCCN1CSC(=Cc2cc(C(C)(C)C)c(O)c(C(C)(C)C)c2)C1=O — higher, 166 to 168 °C
- C#Cc1ccc(C=O)cc1 — higher, 122 to 123 °C
- Cc1cc(C#N)cc(CC#N)c1 — lower, 63 to 64 °C
- CCOc1c(C(C)=O)cnc2[nH]ncc12 — higher, 245 to 248 °C
- COC(=O)C(Cc1cc(OC)cc(OC)c1)c1ccc(O)cc1 (stereo unspecified) — lower, 63 to 65 °C
- Cc1cc(Oc2c(Cl)cc(C(F)(F)F)cc2Cl)nn1C(=O)NCC1CCCO1 (stereo unspecified) — lower, 74 to 76 °C
- CCCCCCCCCCCCCCOc1ccc(CNC(C)=O)cc1 — higher, 100 to 101 °C
- CCCCOC(=O)COc1ccc(C(=O)N(C)c2ccccc2Sc2ccccc2-c2nnn[nH]2)cc1 — higher, 148 to 150 °C
- O=C(NO)c1ccc(I)cc1O — higher, 195 to 196 °C
- C#CC1(NC(=O)C(CCN2CCN(c3ccccc3OC)CC2)c2ccccc2)CCCCC1 (stereo unspecified) — higher, 127 to 129 °C
- Cc1ccc(OCC(=O)c2cc(C(C)C)c(O)c(C(C)C)c2)cc1 — higher, 124 to 125 °C
- N#Cc1ncccc1C(=O)OCc1csc(-c2cccc(Cl)c2)n1 — higher, 130 °C
- CC(=O)Nc1ccc(C(=O)c2ccncc2)cc1 — higher, 215 °C
- Cc1cc(-c2c(-c3ccc(S(N)(=O)=O)cc3)cnn(-c3ccc(F)c(F)c3)c2=O)ccc1F — higher, 243 to 245 °C
- CS(=O)(=O)c1ccc(C(=O)Cl)c(Cl)c1-c1nccs1 — higher, 97 to 98 °C
- Cc1cn(C(C)C(=O)O)nc1-c1ccccc1 (stereo unspecified) — higher, 151 to 162 °C
- CCOc1ccc(C(=O)Nc2ccc(C(C)(C)C#N)cc2)cc1OCC — higher, 138 to 140 °C
- Cn1cccc1-c1nc2cc(Cl)cc(CCc3ccccn3)c2o1 — higher, 100 to 101 °C
- NC(=O)c1c(N2CCN(Cc3ccccc3)CC2)nn2c(-c3ccncc3)ccnc12 — higher, 205 to 206 °C
- O=C(Nc1ccccc1)Nc1ccnc(O)c1 — higher, 198 to 200 °C
- COc1cc(-c2csc(-n3c(C)ccc3C)n2)c(OC)cc1C — not separable, 92 to 93 °C
- Cc1cc(Oc2ccc(Oc3ccc(N)c(C)c3)cc2)ccc1N — higher, 150 to 151 °C
- CCNC(=O)n1cc(F)c(NC(=O)NCc2ccccc2OC)nc1=O — higher, 248 to 250 °C
- O=C(Nc1ccc(CCN2C(=O)[C@H]3CCC[C@H]3N(C(=O)CN3C(=O)c4ccccc4C3=O)c3ccccc32)cc1)OCc1ccccc1 (relative stereo) — higher, 152 to 154 °C
- COc1ccc(S(=O)(=O)C(Cl)(Cl)S(=O)(=O)N(C)C)cc1 — higher, 145 to 147 °C
- COc1ccc2[nH]c(C(F)(F)F)cc2c1 — lower, 60 °C
- CC(C)N(Sc1ccc([N+](=O)[O-])cc1C(Cl)(Cl)Cl)C(C)C — higher, 104 °C
- N#Cc1cc(NC(=O)c2ccn(-c3ccc(F)cc3)c2)ccc1N1CCC(N2CCOCC2)CC1 — higher, 182 to 183 °C
- Cc1c(NC(=O)c2ccc(OC[C@@H]3CCCO3)cc2)ccc2c1cc(CNCC(C)(C)C)n2C — higher, 179 °C
- CC1(C)c2ccc(CCN3CCN(c4nsc5ccccc45)CC3)cc2C(C)(C)C1O (stereo unspecified) — lower, 47 to 49 °C
- Cc1cccc(C(Cl)=NNc2ccccc2)c1 — lower, 66 to 67 °C
- CCOC(=O)C1=C(C)Nc2nc(N)nc(N)c2C1c1ccc(Cl)c(Cl)c1 (stereo unspecified) — higher, 244 °C
- Cc1ccc(NC(=O)Oc2ccc3c(c2)N(Cc2ccccc2)CCC3)cc1 — higher, 98 °C
- CCOC(=O)C12CCC(=O)N1C(=O)CC2 — lower, 77 to 82 °C
- Cc1ncc(Cn2c(CC3CCN(Cc4ccccc4)CC3)nc3ccccc32)o1 — higher, 109 °C
- CC(C)c1nn(-c2ncc(C(F)(F)F)cc2Cl)cc1CCCO — lower, 66 to 67 °C
- COC(=O)c1ccc(CCNC(=O)C[C@H]2O[C@H](c3cccc(OC)c3OC)c3cc(Cl)ccc3N(CC(C)(C)CO)C2=O)cc1 — higher, 167 to 169 °C
- CCCCOC(=O)C=C(C)C=CC=C(C)C=Cc1c(C)cc(C)c([N+](=O)[O-])c1C — higher, 205 to 206 °C
- Cc1nc2c(s1)CN=C(c1ccccc1)c1cc(Cl)ccc1-2 — higher, 128 to 130 °C
- CCCn1c(I)c2c3c(cccc31)C1CC(NC(=O)N(CC)CC)CN(C)C1C2 (stereo unspecified) — higher, 114 to 117 °C
- COc1cc2c(cc1OC)/C(=C\c1ccc(OP(=O)(O)O)cc1)C(=O)N2 — higher, 218 to 220 °C
- CCN(CC)c1ccc(C2(c3ccc(N(C)C)cc3)OC(=O)c3c(Cl)c(Cl)c(Cl)c(Cl)c32)c(N(CC)CC)c1 (stereo unspecified) — higher, 174 to 176 °C
- Clc1cc(-c2ccccc2)nc(Cl)n1 — lower, 80 to 85 °C
- Cc1c(-c2ccc(NC(=O)C(C)C)cc2)sc2c1c(=O)c(C(=O)C(C)C)cn2Cc1c(F)cccc1F — higher, 219 to 222 °C
